# In US20250281465A1, “MOLECULES THAT ENHANCE EXTRACELLULAR VESICLE RELEASE” (priority 2022, published 2025):
# “Also recorded” adds a separate entry of the source.
# Columns and labels:
# THP-1 cells = assay: Intracellular Ca2+ influx screening (Fura-2) in THP-1 cells; type: cell-based, human; details: hit candidate compounds 10 μM, 25 minutes, vs vehicle control (DMSO)
# Experimental: FIGS. 1A-1D. Intracellular Ca^2+ influx screening of 84 HTS hit candidate compounds. (A) THP-1 cells were loaded with the ratiometric Ca^2+ indicator, Fura-2, and treated with lonomycin (ION, 1 μM), Thapsigargin (1 μM), or 84 hit candidate compounds (10 μM) for 25 minutes. Data are presented as the area under the curve (AUG) of OD340/380 ratios corresponding to the intracellular Ca^2+ kinetics. The baseline-subtracted AUG was calculated using GraphPad Prism (GraphPad Software, San Diego, CA). (B) Ca^2+ mobilization by compound #634. mBMDCs were loaded with the ratiometric Ca^2+ indicator, Fura-8, and treated with ION (1 μM), or #634 (2 and 10 μM) for 25 minutes. The dashed line indicates the timing of compounds added. The data shown are representative of three independent experiments showing similar results. (C) Ca^2+ add-back assay. Fura-8-loaded mBMDC were treated with ION (1 μM), or compound #634 (2 μM, 10 μM) for 15 minutes in the absence of extracellular Ca^2+, and then Ca^2+ (final 1.8 mM) was added at 15 minutes. Data shown are representative of three independent experiments showing similar results. (D) C57BL/6 mice (n=5/group) were intramuscularly immunized with ovalbumin (OVA, 20 μg/mouse) adjuvanted with compound #634 (200 nmol/mouse), or Veh (10% DMSO) on days 0 and 21 and bled on day 28. OVA-specific IgGI and IgG2c levels in sera were determined by ELISA. **p<0.01, ***p<0.001, ns (not significant) by KruskalWallis tests with Dunn's post hoc test vs. Veh.
# FIGS. 18A-18C. Compound 634 induces intracellular Ca^2+ levels in mBMDCs. […] The time-response pattern of intracellular Ca^2+ levels was recorded for 25 minutes. AUC of OD340/380 ratios corresponds to the intracellular Ca^2+ kinetics, and the baseline-subtracted AUC was calculated by GraphPad Prism. […]
# FIGS. 24A-24B. […] The time-response pattern of intracellular Ca^2+ levels was recorded with a plate reader for 25 minutes. (A) The AUC of OD340/380 ratios corresponds to the intracellular Ca^2+ kinetics and the baseline-subtracted AUC was calculated by GraphPad Prism (FIG. 36). […]
# mBMDCs [1] = assay: EV release from mBMDCs (differential ultracentrifugation, MRPS); details: 10 μM, 46-48 h, vs Veh
# mBMDCs [2] = assay: Cell viability / cytotoxicity in mBMDCs (MTT); type: cell-based, mouse; details: mBMDCs, Example 2 clustered hits
# Experimental: FIGS. 30A-30B. […] After 48 hours incubation, cell viability was determined by MTT assay.
# mBMDCs (10^5 cells/200 μL/well) were treated with 10 and 5 μM of a test compound in 96-well plates overnight. After 18 hours of drug treatment, MTT (0.5 mg/ml) was added to each well. The cells were lysed after 6-8 hours incubation, and absorbance values at 570 and 650 nm were measured. PrestoBlue reagent (#A13261, Thermo Fisher Scientific) was used for cell viability assay in CD63 HTS as described earlier.
# Cell viability assay. mBMDCs (2×10^6 cells/200 μL/well in RPMI1640 supplemented with dialyzed 10% FBS, or 1.5×10^6 cells/200 μL/well in RPMI1640 supplemented with 10% exosome depleted FBS) were treated with 10 μM of each test compound in 96-well plates. After 46-48 hours of compound treatment, MTT (0.5 mg/mL) was added to each well. The cells were lysed after overnight incubation, and absorbance values at 570 and 650 nm were measured.
# NF-κB = assay: NF-κB-bla THP-1 HTS; type: cell-based, human; details: 10 μM, 5 hours
# Experimental: The robotic HTS using the three reporter cells were performed using 384-well plates by the SelectScreen™ service, Thermo Fisher Scientific (Madison, WI) (Pu et al., 2012; Chan et al., 2017b; Shukla et al., 2018). For HTS using NF-κB-bla and ISRE-bla THP-1 cells, LPS (100 ng/ml) and human IFN-α (50 nM) were used as the positive controls, respectively, while 0.5% DMSO was used as vehicle (Veh). The cells were incubated with compounds (10 μM) for 5 hours, and LiveBLAzer™ FRET BIG substrate (CCF4-AM) mixture was added. Fluorescence was measured at an excitation wavelength of 405 nm, and emission wavelengths of 465 and 535 nm. The background values were subtracted from the raw values (cell-free wells at the same fluorescence wavelength). Emission ratios were calculated by dividing background-subtracted values from em1ss1on wavelength of 465 nm by those from emission wavelength of 535 nm. The response ratio (RR) was calculated as follows (emission ratio of a test well)/(average emission ratio of wells with Veh). Further, for comparison of activity, “% activation” for each compound was computed within the plate as 100×(compound RR−average Veh RR)/(average LPS RR−average Veh RR).
smiles,measurement,setting,value
COC(=O)c1sc(-c2cccs2)cc1NS(=O)(=O)c1ccsc1C(=O)OC [#504],intracellular Ca^2+ increase (Fura-2 assay),THP-1 cells,higher intracellular Ca^2+ increase than vehicle control; also recorded: potent in calcium Fura-2 assay
same,number of EV particles released in the culture supernatant,mBMDCs [1],low
same,MTT assay values (cell viability),mBMDCs [2],higher MTT values
same,NF-κB activity (primary HTS),NF-κB,much lower NF-κB inducing activity
